The values that follow come from US8535904B2, “Method of enhancing skin barrier function” (Pola Chemical Industries Inc., priority 2006, dated 2013).

In experiment [1] the test system is normal human epidermal keratinocytes (NHEK). Nature of the experiment: Calcium ion permeation through cultured normal human epidermal keratinocyte layer (Transwell, Arsenazo III quantification). It is filed as cell-based. As to conditions: 10^-1% test substance; calcium loaded concentration 5 mM; control = test substance concentration 0; FIG. 5/FIG. 6.
Experiment [2] has the same test system. The experiment is described as follows: TER (transepithelial electrical resistance) of cultured normal human epidermal keratinocyte layer. In kind it is cell-based. As to conditions: 10^-4 v/v % in culture medium; TER measured at addition and 1, 2, 3, 4 days later; FIG. 7. The protocol: Frozen normal human epidermal keratinocytes (NHEK) (manufactured by Kurabo Industries Ltd.) were thawed and cultured in a 0.15 mM Ca-containing culture medium (Humedia-KG2; manufactured by Kurabo Industries Ltd.) at 37° C. in […] atmosphere. A Transwell manufactured by Corning Incorporated (diameter 12 mm, polyethylene terephthalate, 0.4 μm pore) was placed on a Millicell tissue culture plate (manufactured by Millipore), and the above-mentioned culture medium was added in amounts of 0.5 ml to the upper layer and 1.5 ml to the lower layer. Then, the normal human epidermal keratinocytes (NHEK) were inoculated at 1×10^5/cm^2 and cultured for additional 72 hours. […] Thereafter, the medium was exchanged for a culture medium containing 10^−4 v/v % α,ε-bis(γ-N-lauroylglutamyl)lysine (Pellicer L-30 (registered trademark) (hereinafter, referred to as Pellicer); manufactured by Asahi Kasei Corporation), and TERs were measured. The culture was further continued, and one, two, three, and four days later, TERs were measured.
Frozen normal human epidermal keratinocytes (NHEK) (manufactured by Kurabo Industries Ltd.) were thawed and cultured in a 0.15 mM Ca-containing culture medium (Humedia-KG2; manufactured by Kurabo Industries Ltd.) at 37° C. in 50% carbon dioxide atmosphere. […] The culture was further continued, and one, two, three, and four days later, TERs were measured.

Regarding `C[N+](C)(C)C[C@H](O)CC(=O)[O-]` [L-carnitine, reference compound], in experiment [1], the “inhibition of the transference of a calcium ion (calcium ion permeation ratio vs control)” value is “had ability to inhibit the transference of a calcium ion”.
`CCCCCCCCCCCC(=O)N[C@@H](CCC(=O)NCCCC[C@H](NC(=O)CC[C@H](NC(=O)CCCCCCCCCCC)C(=O)O)C(=O)O)C(=O)O` [Pellicer, α,ε-bis(γ-N-lauroylglutamyl)lysine]: the “TER (resistance value) compared with the control” value in experiment [2] was “increased resistance value compared with the control”.
For `N[C@@H](CCCCNC(=O)CC[C@H](N)C(=O)O)C(=O)O` [ε,γ-glutamyl lysine], in experiment [1], the “inhibition of the transference of a calcium ion (calcium ion permeation ratio vs control)” value was “had ability to inhibit the transference of the calcium ion”.
